Results from ChEMBL document CHEMBL1275273, “QSAR prediction of D2 receptor antagonistic activity of 6-methoxy benzamides” (Eur J Med Chem, 2010).

Target: D(2) dopamine receptor (Homo sapiens, UniProt P14416)
Test: Antagonist activity at dopamine D2 receptor
Assay type: functional

Sequence of D(2) dopamine receptor (P14416 whole entry): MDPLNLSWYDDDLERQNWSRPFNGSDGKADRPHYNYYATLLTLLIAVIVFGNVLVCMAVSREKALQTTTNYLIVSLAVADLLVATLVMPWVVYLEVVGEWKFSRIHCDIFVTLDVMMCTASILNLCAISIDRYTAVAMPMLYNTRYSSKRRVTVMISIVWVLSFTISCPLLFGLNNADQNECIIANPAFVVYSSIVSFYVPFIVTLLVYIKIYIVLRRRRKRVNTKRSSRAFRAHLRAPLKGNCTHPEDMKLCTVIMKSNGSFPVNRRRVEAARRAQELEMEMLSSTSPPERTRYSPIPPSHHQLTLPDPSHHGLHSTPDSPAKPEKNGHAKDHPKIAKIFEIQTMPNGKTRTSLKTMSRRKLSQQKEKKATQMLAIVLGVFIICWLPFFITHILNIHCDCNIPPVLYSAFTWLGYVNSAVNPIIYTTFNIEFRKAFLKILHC

SMILES	IC50 [nM]
CCN1CCC[C@H]1CNC(=O)c1c(OC)ccc(C)c1OC	5.25
CCCc1c(C)cc(O)c(OC)c1C(=O)NC[C@@H]1CCCN1CC	141
CCN1CCC[C@H]1CNC(=O)c1c(Cl)c(C)cc(O)c1OC	25.7
CCN1CCC[C@H]1CNC(=O)c1c(C)c(Cl)cc(O)c1OC	11
CCN1CCC[C@H]1CNC(=O)c1c(F)c(Br)cc(O)c1OC	7.08
CCc1ccc(OC)c(C(=O)NC[C@@H]2CCCN2CC)c1OC	1.29
CCN1CCC[C@H]1CNC(=O)c1c(OC)c(O)cc(Cl)c1OC	1.7
CCc1cc(O)c(OC)c(C(=O)NC[C@@H]2CCCN2CC)c1Cl	0.912
CCN1CCC[C@H]1CNC(=O)c1c(Br)c(Br)cc(O)c1OC	25.7
CCN1CCC[C@H]1CNC(=O)c1c(Br)c(OC)cc(O)c1OC	67.6
CCN1CCC[C@H]1CNC(=O)c1c(OC)c(O)cc(I)c1OC	0.288
CCCc1cc(O)c(OC)c(C(=O)NC[C@@H]2CCCN2CC)c1C	5.01
CCc1c(Br)cc(O)c(OC)c1C(=O)NC[C@@H]1CCCN1CC	17
CCN1CCC[C@H]1CNC(=O)c1c(OC)c(O)cc(Br)c1[N+](=O)[O-]	186
CCN1CCC[C@H]1CNC(=O)c1c(Cl)c(OC)cc(O)c1OC	70.8
CCCc1c(Cl)cc(O)c(OC)c1C(=O)NC[C@@H]1CCCN1CC	110

SMILES	IC50 [nM]
CCN1CCC[C@H]1CNC(=O)c1c(OC)ccc(Cl)c1Br	5.62
CCN1CCC[C@H]1CNC(=O)c1c(OC)ccc(SC)c1OC	1.1
CCc1cc(O)c(OC)c(C(=O)NC[C@@H]2CCCN2CC)c1OC	1.29
CCN1CCC[C@H]1CNC(=O)c1c(OC)ccc(Br)c1Br	7.94
CCCCc1ccc(OC)c(C(=O)NC[C@@H]2CCCN2CC)c1OC	2.69
CCc1cc(O)c(OC)c(C(=O)NC[C@@H]2CCCN2CC)c1Br	2.29
CCN1CCC[C@H]1CNC(=O)c1c(OC)c(O)cc(Br)c1OC	1.41
CCCc1cc(O)c(OC)c(C(=O)NC[C@@H]2CCCN2CC)c1Cl	3.24
CCc1cc(O)c(OC)c(C(=O)NC[C@@H]2CCCN2CC)c1CC	1.78
CCc1ccc(OC)c(C(=O)NC[C@@H]2CCCN2CC)c1Cl	4.17
CCc1c(Cl)cc(O)c(OC)c1C(=O)NC[C@@H]1CCCN1CC	12
CCc1ccc(OC)c(C(=O)NC[C@@H]2CCCN2CC)c1Br	11
CCN1CCC[C@H]1CNC(=O)c1c(OC)ccc(I)c1OC	0.676
CCN1CCC[C@H]1CNC(=O)c1c(OC)ccc(Cl)c1Cl	20
CCc1cc(O)c(OC)c(C(=O)NC[C@@H]2CCCN2CC)c1F	1.51

Now from value to compound:

IC50 [nM]	SMILES
123	CCc1ccc(O)c(OC)c1C(=O)NC[C@@H]1CCCN1CC
316	CCN1CCC[C@H]1CNC(=O)c1cccc(O)c1OC
8.32	CCN1CCC[C@H]1CNC(=O)c1cc(Br)cc(O)c1OC
257	CCN1CCC[C@H]1CNC(=O)c1cc(Cl)ccc1OC
11	CCN1CCC[C@H]1CNC(=O)c1c(C)c(Br)cc(O)c1OC
3.02	CCN1CCC[C@H]1CNC(=O)c1cc(I)cc(O)c1OC
0.501	CCCc1cc(O)c(OC)c(C(=O)NC[C@@H]2CCCN2CC)c1
2.88	CCc1cc(O)c(OC)c(C(=O)NC[C@@H]2CCCN2CC)c1
204	CCN1CCC[C@H]1CNC(=O)c1cc(OC)cc(O)c1OC
52.5	CCN1CCC[C@H]1CNC(=O)c1c(OC)cccc1OC
17	CCN1CCC[C@H]1CNC(=O)c1c(Cl)c(Br)cc(O)c1OC
3020	CCN1CCC[C@H]1CNC(=O)c1cc([N+](=O)[O-])cc(O)c1OC
32.4	CCN1CCC[C@H]1CNC(=O)c1c(Cl)c(Cl)cc(O)c1OC
64.6	CCN1CCC[C@H]1CNC(=O)c1c(Cl)ccc(O)c1OC
39.8	CCc1ccc(OC)c(C(=O)NC[C@@H]2CCCN2CC)c1
10	CCN1CCC[C@H]1CNC(=O)c1c(OC)ccc(Br)c1O
56.2	CCN1CCC[C@H]1CNC(=O)c1c(Br)ccc(O)c1OC
7.76	CCN1CCC[C@H]1CNC(=O)c1c(C)c(C)cc(O)c1OC
57.5	CCN1CCC[C@H]1CNC(=O)c1c(Br)c(Cl)cc(O)c1OC
67.6	CCCc1ccc(OC)c(C(=O)NC[C@@H]2CCCN2CC)c1
5.5	CCN1CCC[C@H]1CNC(=O)c1c(Br)c(C)cc(O)c1OC
8.71	CCN1CCC[C@H]1CNC(=O)c1c(OC)ccc(O)c1OC
38.9	CCN1CCC[C@H]1CNC(=O)c1cc(Cl)cc(O)c1OC
19.1	CCN1CCC[C@H]1CNC(=O)c1cc(C)cc(O)c1OC
363	CCN1CCC[C@H]1CNC(=O)c1cc(F)cc(O)c1OC
45.7	CCN1CCC[C@H]1CNC(=O)c1cc(Br)ccc1OC
